Laboratory results from patent US8431540B2, “Modified lysine-mimetic compounds” (Zealand Pharma A/S, priority 2005, dated 2013).

System: Male CD-1 mice
Assay: Calcium-induced arrhythmia model (time to AV block after CaCl2 infusion)
Assay type: in vivo
Settings: compound IV 3 min before CaCl2 infusion (100 mg/kg/min), saline control 62-78
Description: Peptides suitable for administration to cardiac cells can be identified in an in vivo model of calcium-induced arrhythmias according to the model of Lynch et al. (1981) J Cardiovasc. Pharmacol. 3: 49-60. Male CD-1 mice are anaesthetized with Ketamine (75 mg/kg) and medetomidine (1 mg/kg) IP. An i.v. cannula is inserted into the tail vein. A lead II ECG signal is recorded continuously by positioning stainless steel ECG electrodes on the right forelimb and […]. The ground electrode is placed on the right hind limb. The signal is amplified and filtered using Gould physiograph components and po-ne-mah data acquisition software. After a 90 sec equilibration period test compound is injected into the tail vein (over 30 seconds). Mice pre-treated with vehicle are tested as control animals. The injection volume is 100 μl/30 g mice in all experiments. Infusion of CaCl2 (30 mg/mL, 0.1 mL/min/30 g mice, 100 mg/kg/min) is started 3 min after IV administration of drug or vehicle (0.9% saline). The time lag to onset of cardiac conduction block is determined as the time from the start of CaCl2 infusion until the first arrhythmic event occurred. The first conduction block is defined as the first RR-interval, larger than or equal to 3 times one RR-interval from the pre-treatment period. The first arrhythmic event occurring is either a second degree AV-block (intermittent failure of the AV conduction characterized by a P-wave without the concomitant QRS complex) or a second degree SA block (prolonged RR-interval and a QRS-complex without a preceding P-wave). Responses are expressed relative to the time until 2nd degree AV-block occurred in vehicle treated mice.
The anti-arrhythmic effect of compounds according to the present teachings was tested in a model of calcium-induced arrhythmias according to the model of Lynch et al., J. Cardiovasc. Pharmacol. (1981), 3: 49-60. Male CD-1 mice were anaesthetized with Ketamine (75 mg/kg) and medetomidine (1 mg/kg) IP. An i.v. cannula was inserted into the tail vein. A lead II ECG signal was recorded continuously by positioning stainless steel ECG electrodes on the right forelimb and […]. The ground electrode was placed on the right hind limb. The signal was amplified and filtered using Gould physiograph components and po-ne-mah data acquisition software. After a 90 sec equilibration period test compound was injected into the tail vein (over 30 seconds). Mice pre-treated with vehicle (0.9% saline) were tested as control animals. The injection volume was 100 μl/30 g mice in all experiments. Infusion of CaCl2 (30 mg/mL, 0.1 mL/min/30 g mice, 100 mg/kg/min) was started 3 min after IV administration of drug or vehicle. The time lag to onset of cardiac conduction block was determined as the time from the start of CaCl2 infusion until the first arrhythmic event occurred. The first conduction block was defined as the first RR-interval, larger/or equal to, 3 times one RR-interval from the pre-treatment period. The first arrhythmic event occurring was either a second degree AV-block (intermittent failure of the AV conduction characterized by a P-wave without the concomitant QRS complex) or a second degree SA block (prolonged RR-interval and a QRS-complex without a preceding P-wave).
Mice pre-treated with vehicle (0.9% saline) were tested on all days as a measure for control level in untreated animal. Injection volume was 100 μL in all experiments. The time lag to onset of arrhythmias was determined as the time from the start of CaCl2 infusion until the first event of conduction block defined as intermittent failure of the SA or AV conduction characterized by delayed P-wave activation (SA block) or by a P-wave without the concomitant QRS complex (AV block). The time lag to onset of AV block is given below in Table 2.

SMILES: NCC(=O)N1C[C@H](NC(=O)c2ccccc2)C[C@H]1C(=O)O [Compound 2, (2S4R)1-(2-Amino-acetyl)-4-benzoylamino-pyrrolidine-2-carboxylic acid]
- Time to AV block: 134.7 s
